Each structure is given as a SMILES string. pIC50: −log10 of the molar value. Read-outs that look alike come from different tables or passages of the source. A value given as a limit tells only on which side of the number the result lay.

One data set relates to leukemia MV-4-11 cell. Briefly: Cell proliferation assay (CellTiter-Glo), MV-4-11. The settings on record: Homo sapiens, MV4-11, MV-4-11, 120 hrs, CTG, read-out: Compound on MV-4-11 cell IC50. The format is cell-based. A general note: ATP-based viability assays read luminescence as a measure of living cells.
A short description of data set [1]: In vitro metabolic stability in rat liver microsome. The format is in vitro ADME. The note with it: rat liver microsomes. The protocol:
(§1) 1900 mg MgCl2 was dissolved into a final volume of 400 mL ultra-pure water.
(§2) 17.42 g K2HPO4 and 13.65 g KH2PO4 were dissolved into a final volume of 1000 mL ultra-pure water, respectively. K2HPO4 and KH2PO4 were mixed to prepare 100 mM potassium phosphate (PBS) buffer. The pH value of the final solution was adjusted to pH 7.30±0.10.
(§3) Cold ACN (including 10 ng/mL Labetalol and 10 ng/mL Glibenclamid) was stored at 4° C.
(§4) Working Solution Preparation:
(§5) Verapamil (positive control) and test compound stock solution were diluted into a concentration of 50 μM and 200 μM respectively, using MeOH/ACN/H2O solution (1:1:2, v/v/v).
(§6) 1) 40 μL MgCl2 and 306 μL PBS were added to 96 plate wells (blank, compound wells, compounds without NADPH wells)
(§7) 2) 4 μL compound working solution was added to above wells (blank: 4 μL PBS buffer) (Note: the volume of DMSO in final incubation system ≤0.5%)
(§8) 3) 10 μL microsomes (20 mg/mL) was added in each well. The mixture was warmed up for 10 minutes at 37.0° C.
(§9) 4) 40 μL 10 mM NADPH working solution was added to start reaction. The total volume was 400 μL.
(§10) 5) Aliquots of 50 μL samples were taken from the reaction solution at 0, 5, 15, 45 min. The reaction solutions were stopped by the addition of 400 μL stop solution.
(§11) 6) The sampling plates were shaked for approx. 5 min.
(§12) 7) Samples were centrifuged at 3200 rcf for 10 min. then transferred 50 μL to a new plate dilute with 200 μL H2O for LC/MS/MS analysis.
(§13) Use equation of first order kinetics to calculate t1/2 and CL: […]
(§14) Where k represents elimination constant, which is calculated from a log linear plot of % Remaining versus time. t1/2 represents the half-life. Cprotein is the concentration of liver microsomes.
A general note: Liver microsomes are a subcellular fraction often used to study metabolism.

Data set [2] deals with lung cancer NCI-H358 cell. The data set can be described thus: Cell proliferation assay (CellTiter-Glo), NCI-H358. The note with it: Homo sapiens, NCI-H358, 96 hrs, CTG, read-out: Compound on NCI-H358 cell IC50. The format is cell-based. In outline: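 NCI-H358 cells were seeded at 2000 per well on ultra-low-attachment plates and exposed to compound (1000 nM down to 0.1524 nM, threefold steps) for 96 hrs at 37 °C. Viable cells were measured as ATP by CellTiter-Glo luminescence. Inhibition was computed against 0 nM and medium blanks, and IC50 from variable-slope fits.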

A short description of data set [3]: In vitro metabolic stability in human liver microsome. The note with it: human liver microsomes. The format is in vitro ADME. The method, then: as §1, §2, §3, §4, §5, §6, §7, §8, §9, §10, §11, §12, §13, §14

The term pIC50 denotes the IC50 on a negative log10 scale, so that one unit is a factor of ten. `N[C@@H]1c2ccccc2CC12CCN(c1nc3[nH]nc(C4(c5cccc(F)c5)CC4)c3c(=O)[nH]1)CC2` [Example 6, (S)-6-(1-amino-1,3-dihydrospiro[indene-2,4′-piperidin]-1′-yl)-3-(1-(3-fluorophenyl)cyclopropyl)-1,5-dihydro-4H-pyrazolo[3,4-d]pyrimidin-4-one]: the values for the pIC50 (in the data set on leukemia MV-4-11 cell (numeric values); in data set [2] (numeric values)) were 8.19 and 8.07, respectively. For the same compound, the “CLint Rat” value in data set [1] stood at 11.2 μL/min/mg proteins. Besides, in data set [3], the “CLint Human” value amounted to 19.5 μL/min/mg proteins.

Turning to `N[C@@H]1c2ccccc2CC12CCN(c1nc3[nH]nc(C4(c5ccc(O)cc5)CC4)c3c(=O)[nH]1)CC2` [Example 234, (S)-6-(1-amino-1,3-dihydrospiro[indene-2,4′-piperidin]-1′-yl)-3-(1-(4-hydroxyphenyl)cyclopropyl)-1,5-dihydro-4H-pyrazolo[3,4-d]pyrimidin-4-one], the “CLint Rat” value in data set [1] worked out at 6.6 μL/min/mg proteins. Moreover, in data set [3], the “CLint Human” value was determined as 10.4 μL/min/mg proteins.

Consider `N[C@@H]1c2ccccc2CC12CCN(c1nc3[nH]nc(C4(c5cccc(C(F)(F)F)c5)CC4)c3c(=O)[nH]1)CC2` [Example 8, (S)-6-(1-amino-1,3-dihydrospiro[indene-2,4′-piperidin]-1′-yl)-3-(1-(3-(trifluoromethyl)plienyl)cyclo-propyl)-1,5-dihydro-4H-pyrazolo[3,4-d]pyrimidin-4-one], for which the negative logarithm of the IC50 (pIC50) was 8.21 with leukemia MV-4-11 cell (numeric values) and 8.77 in data set [2] (numeric values). In data set [1], the “CLint Rat” value stood at 11.6 μL/min/mg proteins. For the same compound, in data set [3], the “CLint Human” value was determined as 9.2 μL/min/mg proteins.

For `N[C@@H]1c2ccccc2CC12CCN(c1nc3[nH]nc(C4(c5ccc(Cl)c(Cl)c5)CC4)c3c(=O)[nH]1)CC2` [Example 21, (S)-6-(1-amino-1,3-dihydrospiro[indene-2,4′-piperidin]-1′-yl)-3-(1-(3,4-dichlorophenyl)cyclopropyl)-1,5-dihydro-4H-pyrazolo[3,4-d]pyrimidin-4-one], the pIC50 (with leukemia MV-4-11 cell (class symbols); in data set [2] (class symbols)) was not below 7.70 throughout. The “CLint Rat” value in data set [1] is reported as 3.8 μL/min/mg proteins. The “CLint Human” value in data set [3] came to 10.4 μL/min/mg proteins.

On to `N#Cc1ccc(C2(c3n[nH]c4nc(N5CCC6(CC5)Cc5ccccc5[C@H]6N)[nH]c(=O)c34)CC2)cc1` [Example 237, (S)-4-(1-(6-(1-amino-1,3-dihydrospiro[indene-2,4′-piperidin]-1′-yl)-4-oxo-4,5-dihydro-1H-pyrazolo[3,4-d]pyrimidin-3-yl)cyclopropyl)benzonitrile], for which the pIC50 (in the data set with leukemia MV-4-11 cell (class symbols); in data set [2] (class symbols)) was not below 7.70 throughout.

As to `N[C@@H]1c2ccccc2CC12CCN(c1nc3[nH]nc(C4(c5cccs5)CC4)c3c(=O)[nH]1)CC2` [Example 24, (S)-6-(1-amino-1,3-dihydrospiro[indene-2,4′-piperidin]-1′-yl)-3-(1-(thiophen-2-yl)cyclopropyl)-1,5-dihydro-4H-pyrazolo[3,4-d]pyrimidin-4-one], the pIC50 (in the data set with leukemia MV-4-11 cell (class symbols); in data set [2] (class symbols)) was not below 7.70 in each case.

For the compound `N[C@@H]1c2ccccc2CC12CCN(c1nc3[nH]nc(C4(c5ccc(C(F)(F)F)cc5)CC4)c3c(=O)[nH]1)CC2` [Example 228, (S)-6-(1-amino-1,3-dihydrospiro[indene-2,4′-piperidin]-1′-yl)-3-(1-(4-(trifluoromethyl)phenyl)cyclo-propyl)-1,5-dihydro-4H-pyrazolo[3,4-d]pyrimidin-4-one], the pIC50 (in the data set with leukemia MV-4-11 cell (class symbols); in data set [2] (class symbols)) was 7.22 to 7.70 each time. In addition, the “CLint Rat” value in data set [1] was determined as 12.4 μL/min/mg proteins. Also, in data set [3], the “CLint Human” value amounted to 6.2 μL/min/mg proteins.

Turning to `N[C@@H]1c2ccccc2CC12CCN(c1nc3[nH]nc(C4(c5ccc6c(c5)OCO6)CC4)c3c(=O)[nH]1)CC2` [Example 34, (S)-6-(1-amino-1,3-dihydrospiro[indene-2,4′-piperidin]-1′-yl)-3-(1-(benzo[d][1,3]dioxol-5-yl)cyclopropyl)-1,5-dihydro-4H-pyrazolo[3,4-d]pyrimidin-4-one], the pIC50 (in the data set on leukemia MV-4-11 cell (class symbols); in data set [2] (class symbols)) was not below 7.70 in each case. Moreover, in data set [1], the “CLint Rat” value was found to be 19.1 μL/min/mg proteins. In addition, the “CLint Human” value in data set [3] is reported as 16.5 μL/min/mg proteins.

Regarding `N[C@@H]1c2ccccc2CC12CCN(c1nc3[nH]nc(C4(c5csnn5)CC4)c3c(=O)[nH]1)CC2` [Example 240, (S)-3-(1-(1,2,3-thiadiazol-4-yl)cyclopropyl)-6-(1-amino-1,3-dihydrospiro[indene-2,4′-piperidin]-1′-yl)-1,5-dihydro-4H-pyrazolo[3,4-d]pyrimidin-4-one], the pIC50 (in the data set on leukemia MV-4-11 cell (class symbols); in data set [2] (class symbols)) was not below 7.70 each time. Further, the “CLint Rat” value in data set [1] is given as 15.0 μL/min/mg proteins. Moreover, the “CLint Human” value in data set [3] is on record as 11.8 μL/min/mg proteins.

Consider `N[C@@H]1c2ccccc2CC12CCN(c1nc3[nH]nc(C4(c5ccccc5)CC4(F)F)c3c(=O)[nH]1)CC2` (stereo partly drawn) [Example 9, 6-((S)-1-amino-1,3-dihydrospiro[indene-2,4′-piperidin]-1′-yl)-3-(2,2-difluoro-1-phenylcyclopropyl)-1,5-dihydro-4H-pyrazolo[3,4-d]pyrimidin-4-one], for which the pIC50 (with leukemia MV-4-11 cell (class symbols); in data set [2] (class symbols)) was not below 7.70 in each case. Moreover, in data set [1], the “CLint Rat” value was found to be 10.5 μL/min/mg proteins. Also, the “CLint Human” value in data set [3] came out at 16.9 μL/min/mg proteins.

For `Nc1ccc(C2(c3n[nH]c4nc(N5CCC6(CC5)Cc5ccccc5[C@H]6N)[nH]c(=O)c34)CC2)cc1` [Example 230, (S)-6-(1-amino-1,3-dihydrospiro[indene-2,4′-piperidin]-1′-yl)-3-(1-(4-aminophenyl)cyclopropyl)-1,5-dihydro-4H-pyrazolo[3,4-d]pyrimidin-4-one], the “CLint Rat” value in data set [1] is recorded as 3.2 μL/min/mg proteins. The “CLint Human” value in data set [3] was determined as 9.2 μL/min/mg proteins.

Regarding `N[C@@H]1c2ccccc2CC12CCN(c1nc3[nH]nc(C4(c5ccccc5)CC4)c3c(=O)[nH]1)CC2` [Example 33], the negative-log IC50 (pIC50) (in the data set on leukemia MV-4-11 cell (class symbols); in data set [2] (class symbols)) was not below 7.70 each time. Besides, the “CLint Rat” value in data set [1] was 17.4 μL/min/mg proteins. For the same compound, the “CLint Human” value in data set [3] is given as 10.6 μL/min/mg proteins.

`Cn1c(N2CCC3(CC2)Cc2ccccc2[C@H]3N)nc2[nH]nc(C3(c4ccccc4)CC3)c2c1=O` [Example 1]: in the data set with leukemia MV-4-11 cell (class symbols), the negative-log IC50 (pIC50) was not below 7.70. The “CLint Rat” value in data set [1] amounted to 34.7 μL/min/mg proteins. The “CLint Human” value in data set [3] was 95.2 μL/min/mg proteins.

Consider `N[C@@H]1c2ccccc2CC12CCN(c1nc3[nH]nc(C4(c5ccccc5)COC4)c3c(=O)[nH]1)CC2` [Example 96, (S)-6-(1-amino-1,3-dihydrospiro[indene-2,4′-piperidin]-1′-yl)-3-(3-phenyloxetan-3-yl)-1,5-dihydro-4H-pyrazolo[3,4-d]pyrimidin-4-one], for which the figures for the negative logarithm of the IC50 (pIC50) (in the data set on leukemia MV-4-11 cell (class symbols); in data set [2] (class symbols)) were 7.22 to 7.70 and less than 7.22, respectively.

Regarding `N[C@@H]1c2ccccc2CC12CCN(c1nc3[nH]nc(C4(c5ccc6c(c5)OC(F)(F)O6)CC4)c3c(=O)[nH]1)CC2` [Example 13, (S)-6-(1-amino-1,3-dihydrospiro[indene-2,4′-piperidin]-1′-yl)-3-(1-(2,2-difluorobenzo[d][1,3]dioxol-5-yl)cyclopropyl)-1,5-dihydro-4H-pyrazolo[3,4-d]pyrimidin-4-one], the pIC50 (with leukemia MV-4-11 cell (class symbols); in data set [2] (class symbols)) was not below 7.70 in each case. In addition, the “CLint Rat” value in data set [1] is reported as 14.3 μL/min/mg proteins. Moreover, the “CLint Human” value in data set [3] was 9.8 μL/min/mg proteins.

On to `N[C@@H]1c2ccccc2CC12CCN(c1nc3[nH]nc(C4(c5ccc(F)cc5)CC4)c3c(=O)[nH]1)CC2` [Example 11, (S)-6-(1-amino-1,3-dihydrospiro[indene-2,4′-piperidin]-1′-yl)-3-(1-(4-fluorophenyl)cyclopropyl)-1,5-dihydro-4H-pyrazolo[3,4-d]pyrimidin-4-one], for which the values for the pIC50 (in the data set with leukemia MV-4-11 cell (numeric values); in data set [2] (numeric values)) were 8.92 and 8.68, respectively. Moreover, the “CLint Rat” value in data set [1] stood at 6.6 μL/min/mg proteins. Besides, in data set [3], the “CLint Human” value was determined as 8.6 μL/min/mg proteins.

These data come from US20230192705A1, “SHP2 INHIBITORS, COMPOSITIONS AND USES THEREOF” (Betta Pharmaceuticals Co., Ltd, priority 2020, published 2023).
